Data: US6667309B2, “Cyclobutene derivatives useful as antagonists of the motilin receptor” (Ortho-McNeil Pharmaceutical, Inc., priority 2000, dated 2003)

Target: T1, motilin receptors located on the colon of mature rabbits (Oryctolagus cuniculus, UniProt G1T803)
T1 construct: The muscle tissues were homogenized in 10 volumes of buffer; from tissue; host or cells: rabbit colon smooth muscle, crude membrane homogenate
Assay: Competition with radiolabeled motilin (porcine) binding, rabbit colon membranes
Parameters: species or system New Zealand rabbits
Settings: I125 motilin (porcine), rabbit colon membrane
Description: The compounds of the invention were tested for their ability to compete with radiolabeled motilin (porcine) for the motilin receptors located on the colon of mature rabbits. The colon from mature New Zealand rabbits was removed, dissected free from the mucosa and serosa layers, and diced into small pieces. The muscle tissues were homogenized in 10 volumes of buffer (50 mM Tris-Cl, 10 mM MgCl2, 0.1 mg/mL bactracin, and 0.25 mM Peflabloc, pH 7.5) in a Polytron (29,000 rpm, 4×15 seconds). The homogenate was centrifuged at 1000×g for 15 min. and the supernatant discarded. The pellet was washed twice before being suspended in homogenizing buffer. This crude homogenate was then passed first through a 19 gauge needle then a 23 gauge needle to further suspend the material and stored at −80° C. […] The pellet was counted in the gamma counter to determine the percentage of […] motilin and thereby the percent inhibition of the test compound.
% inhibition was determined for some compounds by standard techniques: […]

T1 sequence (G1T803 1-400): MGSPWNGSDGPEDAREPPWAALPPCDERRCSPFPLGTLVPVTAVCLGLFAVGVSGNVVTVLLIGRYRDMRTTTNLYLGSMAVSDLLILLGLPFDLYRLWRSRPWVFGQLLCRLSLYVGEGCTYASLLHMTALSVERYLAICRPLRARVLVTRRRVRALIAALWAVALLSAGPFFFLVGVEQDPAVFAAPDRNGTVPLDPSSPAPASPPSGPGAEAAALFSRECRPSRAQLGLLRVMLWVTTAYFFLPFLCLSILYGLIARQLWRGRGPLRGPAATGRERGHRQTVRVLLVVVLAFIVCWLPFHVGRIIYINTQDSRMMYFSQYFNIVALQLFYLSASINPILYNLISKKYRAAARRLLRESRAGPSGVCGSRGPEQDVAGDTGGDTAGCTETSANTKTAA

SMILES	% inhibition (@ 1,000 nM test compound)	% inhibition (@ 10,000 nM test compound)
O=C(c1ccc(F)c(F)c1)N(CC1=CC(Cc2ccccc2)(NC(=O)C(Cl)(Cl)Cl)C1)c1cccc(OCCN2CCOCC2)c1 (centres unmarked) [example 6, 3-Benzyl-3-trichloroacetamido-1-[N-(3,4-difluorobenzoyl)]-N-[(3-(2-morpholinoethoxy)phenyl)amino]methylcyclobutene]	14%	
O=C(c1ccc(Br)cc1)N(CC1=CC(Cc2ccccc2)(NC(=O)C(Cl)(Cl)Cl)C1)c1cccc(OCCN2CCOCC2)c1 (centres unmarked) [example 7, 3-Benzyl-3-trichloroacetamido-1-[N-(4-bromobenzoyl)]-N-[(3-(2-morpholinoethoxy)phenyl)amino]methylcyclobutene]		47%
